Each structure is given as a SMILES string.

Data set [1] addresses T1, Der p 1 (Dermatophagoides pteronyssinus, UniProt P08176).
T1 sequence (P08176 99-320): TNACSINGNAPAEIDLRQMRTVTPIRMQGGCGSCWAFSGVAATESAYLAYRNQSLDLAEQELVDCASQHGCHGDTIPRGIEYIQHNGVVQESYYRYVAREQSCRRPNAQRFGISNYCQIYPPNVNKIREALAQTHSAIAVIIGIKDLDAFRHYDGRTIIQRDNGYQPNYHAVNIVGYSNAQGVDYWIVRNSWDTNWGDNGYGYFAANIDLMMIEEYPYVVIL
Set-up: method as in PMID 9871695. The following applies: irreversible acyloxymethyl ketone inhibitors, Figure 1; cited from earlier work.

The target of data set [2] is Der f 1 (Dermatophagoides farinae, UniProt P16311). In words: Group 1 HDM peptidase allergen inhibition assay (Der f 1). In kind it is biochemical, D. farinae. As to conditions: in vitro enzymatic assay, mean ± SE. As for the experimental part:
Automated screening of inhibitory activity toward group 1 HDM peptidase allergens was performed as described elsewhere[25],[43] with the minor modification that Der p 1 or Der f 1 were incubated with inhibitors for 20 min prior to initiation of reactions by addition of substrate. In initial screening, the activity of each compound was measured using a series of 10 doubling dilutions from a starting concentration of 50 μM. Compounds showing optimizable activity were cherry-picked for multiple (up to six) rounds of rescreening to confirm activity and stability and to determine IC50 values over a range of concentrations that were compound-directed by initial screening. Assays were performed in triplicate for calculation of mean ± SE IC50 values.

A short description of data set [3]: Measurement of LogD7.4 (n-octanol/PBS shake). In kind it is physicochemical. As to conditions: single determination, n-octanol/PBS pH 7.4; read-out: Log D7.4. As to the method:
Appendix 4. Measurement of LogD7.4
Test compounds (~1 mg) were weighed into 2 mL HPLC vials. n- Octanol (0.7 mL), pre-saturated with 10 mM phosphate buffered saline pH7.4 (PBS), was added to each vial followed b y PBS (0. 7 mL), which had been pre-saturat ed with n-octanol. The mixtures were shaken for 90 min and then centrifuged for 10 min at 4,000 rpm. The upper organic l ayer (0.2 m L) and the aqueous la yer (0.5 mL) were removed from each vial and anal yz e d b y LC -MS. Mass spect ral anal ysis was used to confirm peak identity whilst the concentration of compound was assessed by a diode arra y det ecto r. The logD for each compound was calculated b y takin g th e lo g of its concentration ratio between the oct anol and aqueous la ye r s.Given the robustness of the assa y and the fact that the info rmation was us ed onl y for gen eral guid ance, thes e measu rements were based on singlicate det erminations.

The nature of data set [4]: Pharmacokinetics after oral and iv dosing to rats. In kind it is in vivo, Sprague-Dawley rat. As to conditions: for Cmax / bioavailability: male, Sprague-Dawley, plasma; for Cmax / bioavailability / free conc Cmax: rat; for Cmax / free conc Cmax: 5 mg/kg po; for bioavailability: po, 5 mg/kg, read-out: F % (bioavailability). As to the method: (§1) Appendix 2. Pharmaco kinetics an d P l a s ma Protein Binding […]
Pharma cokinetics. In vivo PK characteristics were determined using non- fasted Sprague-Dawle y rats (mal e, 200-300 g, 10- 16 weeks of age) with groups of three animals per route per compound. Soluble formulations were developed and verified b y HP LC/UV s o that compounds were dosed discretel y b y the iv (1 mg/kg, 1 mL/kg) and po (5 mg/kg, 5 mL/kg) routes. Blood samples were obtained at various times after dosing and plasma prepared for LC -MS-MS quantification of the test substance after inclusion of an intern al standard . PK p aramet ers were calculated usin g a non -compartmental model in WinNonlin v5.2.
(§2) Plasma Protein Binding Assay. PPB was determined with a Rapid Equilibrium Dialysis device using 8 kDa molecular weight cut-off inserts (Fisher Scientific UK Ltd, Leicest ershire, UK) as described b y the manufacturer. R at (Sprague Dawl e y strain) plasma EDTA K2 (mixed gender, pooled, SeraLab, West Sussex, UK) was thawed and centrifuged at 13,000 x g for 10 min to remove precipitates before being spiked with compounds (5 µM). The concentrations of compounds in the plasma and buffer chambers were determined b y LC -MS-MS (AB Sciex 3200 QTrap) anal ysis after 4 h incubation at 37 °C. Binding was calculated from the concentration percentage in both chambers as shown below. Assays were p erfo rmed in replicate and the data

The nature of data set [5]: Plasma protein binding, Rapid Equilibrium Dialysis. The following applies: both sexes, Sprague Dawley, plasma (EDTA K2, pooled), rat plasma, 4 h at 37 °C, read-out: PPB (converted). In kind it is in vitro ADME. As to the method:
as §1, §2
A general note: Equilibrium dialysis compares concentrations on both sides of a semipermeable membrane.

The subject of data set [6] is sensitized BN rats challenged with mixed HDM allergens. In words: HDM allergen challenge of sensitized BN rats, BAL cells. Format: in vivo, Brown Norway rat. As to conditions: single dose 12 μg/kg (18 nmol/kg) 2 h prior to challenge, BAL 48 h.
Text: For other studies, rats were actively sensitized to a natural mixture of HDM allergens prepared from laboratory cultures of Dermatophagoides pteronyssinus. Animals were sensitized by the ip route in the absence of additional adjuvant on day 0, 7, and 14. […] Negative control groups comprised naïve, unsensitized animals or those sham-sensitized with vehicle solution.
Test ADIs were delivered as intratracheal aerosols of 25–30 μm mass median diameter from a Penn-Century IA-1B microsprayer at various times prior to allergen challenge. Allergen or vehicle challenge was similarly delivered by Penn-Century microsprayer on day 21 of the protocol. These procedures were conducted under anesthesia with isoflurane in oxygen. Test ADIs were generally dosed in a constant 50:1 molar ratio to the Der p 1 content of the allergen challenge mixture.
Animals were killed by sodium pentobarbital overdose 48 h after allergen challenge because this is the optimal sampling point to assess the recruitment of eosinophils (our unpublished observations). The airways were lavaged with 3 × 4 mL aliquots of Hanks’ Balanced Salt Solution and the recovered cells pooled and counted automatically (ADVIA; Bayer Healthcare, Diagnostics Division, UK). […] Cells were counted by an independent observer using light microscopy under oil immersion (×1000). […]
In data set [7] the test system is nonsensitized rats challenged with a natural mixture of HDM allergens. The following applies: rat, in vivo.
Data set [8] concerns the target human liver Cat B (Homo sapiens, UniProt P07858). Nature of the data set: Cathepsin B inhibition assay. The following applies: read-out: Cat B IC50; mean ± SE.
Experimental: Inhibition of Cat B was measured as described with modifications.[25] […] Progress curves were followed at 30 °C by detection of fluorescence at 320/420 nm (excitation/emission).
(§3) In all cases, for reactions involving inhibitors, the amount of reaction buffer was adjusted to 60 μL, the inhibitor added as a 10 μL aliquot, and incubated for 20 min with the enzyme prior to reaction start.
Data set [9] concerns the target recombinant human Cat S (Homo sapiens, UniProt P25774). Nature of the data set: Cathepsin S inhibition assay. In kind it is biochemical. The following applies: in vitro enzymatic assay, mean ± SE; read-out: Cat S.
Experimental: as §3
[10] abbreviates: 5 mg/kg po compared with 1 mg/kg iv, nonfasted Sprague–Dawley rats, mean ± SE, n = 3.

Chain of Der f 1 (P16311 99-321): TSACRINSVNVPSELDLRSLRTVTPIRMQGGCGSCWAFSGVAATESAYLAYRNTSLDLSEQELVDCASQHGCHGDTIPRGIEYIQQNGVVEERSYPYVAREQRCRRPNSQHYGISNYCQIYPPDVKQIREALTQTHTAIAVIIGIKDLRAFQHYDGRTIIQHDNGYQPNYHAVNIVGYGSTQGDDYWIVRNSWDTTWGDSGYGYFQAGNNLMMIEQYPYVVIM
Chain of recombinant human Cat S (P25774 115-331): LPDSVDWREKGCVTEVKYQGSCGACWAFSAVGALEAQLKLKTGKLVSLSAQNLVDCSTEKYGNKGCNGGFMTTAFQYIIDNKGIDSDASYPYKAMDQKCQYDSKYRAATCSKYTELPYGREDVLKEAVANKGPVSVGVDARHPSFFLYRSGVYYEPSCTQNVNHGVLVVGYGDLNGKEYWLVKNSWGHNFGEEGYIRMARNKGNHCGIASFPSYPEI

For the compound `CCCC[C@H](NC(=O)[C@H](C)NC(=O)[C@@H](NC(=O)c1ccccc1)C(C)C)C(=O)COC(=O)c1ccccc1` [Compound 1], the “Kobs/[I]” value in [1] was 210000 M⁻¹ s⁻¹.
For the compound `CC(C)[C@H](NC(=O)[C@H](C)NC(=O)[C@@H](NC(=O)C1CC[N+](C)(C)CC1)C(C)(C)C)C(=O)C(=O)NCc1ccccc1.O=C[O-]` [Compound 32, 4-{(S)-1-[(S)-1-((S)-1-Benzylaminooxalyl-2-methyl-propylcarbamoyl)-ethylcarbamoyl]-2,2-dimethyl-propylcarbamoyl}-1,1-dimethyl-piperidinium Formate], in data set [2], the IC50 turned out to be 4 nM. Also, the logD at 1.5 h in [3] was -0.9. In addition, in data set [4] (setting [10]), the “F % (bioavailability)” value stood at 0.6 ± 0.2% and the bioavailability is 1%. Besides, the maximum concentration (Cmax) in data set [4] (mean ± SE, n = 3) is 20 ± 13 nM. Besides, in [4], the “free conc Cmax” value amounted to 8 ± 0 nM. For the same compound, the fraction unbound at 4 h, 5 µM in [5] is 0.388. Moreover, in data set [6], the “eosinophil recruitment” value was “marked inhibition” and the “increase in total nucleated cells recoverable by BAL” value is “significantly blunted”. Moreover, the “efficacy, inhibition of eosinophil recruitment” value in data set [7] was “Good efficacy”. Also, the IC50 in data set [8] came out at 274 ± 44 nM.
As to `CC(C)[C@H](NC(=O)[C@H](C)NC(=O)[C@H](Cc1ccccc1)NC(=O)c1ccccc1)C(=O)C(=O)NCC(=O)N1CC[N+](C)(C)CC1.O=C[O-]` [Compound 52, 4-(2-{(S)-3-[(S)-2-((S)-2-Benzoylamino-3-phenyl-propionylamino)-propionylamino]-4-methyl-2-oxo-pentanoylamino}-acetyl)-1,1-dimethyl-piperazin-1-ium Formate], the IC50 in [2] is 11 ± 1 nM; in data set [9] it was 114 ± 7 nM; in data set [8] it was more than 2500 nM. Moreover, the logD at 1.5 h in data set [3] was -0.6. The compound further displayed a Cmax in [4] (mean ± SE, n = 3) of 7 ± 2 nM. Besides, in data set [4] (setting [10]), the bioavailability was 0%. Besides, the “free conc Cmax” value in data set [4] turned out to be 3 ± 0 nM. The fraction unbound at 4 h, 5 µM in [5] was 0.365. The “efficacy, inhibition of eosinophil recruitment” value in data set [7] was “Good efficacy”.
Regarding `CCCC[C@H](NC(=O)[C@H](C)NC(=O)[C@@H](NC(=O)c1ccccc1)C(C)C)C(=O)COC(=O)c1c(C(F)(F)F)cccc1C(F)(F)F` [Compound 2], the “Kobs/[I]” value in data set [1] is 1.6e+06 M⁻¹ s⁻¹.

In general, Cmax refers to the peak of the concentration-time curve. The bioavailability is dose-corrected exposure relative to a reference, in per cent.

These data come from PMC4257840 (Journal of Medicinal Chemistry, 2014).
